Results taken from article PMC9945734 (BMC Medicine, 2023).
Where two headings read alike, the source gives them in different places.

Tested on: PC-3-KQ cells
Experiment: 3D spheroid invasion assay and screening of FDA-approved drugs
Type: cell-based, human
Conditions: compared to vehicle control; for activity at 0.01 µM / activity at 0.1 µM / activity at 1 µM / activity at 10 µM: Homo sapiens, 72 h
Description: The invasion assay was performed as previously described. […] The plates were then centrifuged at 320 g for 4 min to cluster cells in the bottom of wells and incubated for 3 days. On the fourth day, 40 μL medium was removed from each well, 40 μL of the matrigel-medium mixture was added to each well, and cells were cultured for another 3 days. […] At the end of the incubation, images were taken using a phase contrast microscope (Eclipse Ti2, Nikon, Tokyo, Japan) with 10× object lenses, and the total area of cells and the core sphere area of cells (Fig. 1a) were measured using the Image J software. The invading area was calculated using the following formula: invasion area = total area of cells – core sphere area.
For drug screening, drugs were added to the matrigel-medium mixture when replacing the culture medium on day 4. For the initial round of screening, a final concentration of 10 μM was used for all drugs. Multiple drug concentrations were used for the second round of screening, including 0, 0.001, 0.01, 0.1, 1, and 10 μM. Duplicate wells were repeated for each concentration.

[1] = 0.01 μM (first column so headed), secondary screening of 87 hit compounds (Table S1)
[2] = 0.01 μM (second column so headed), secondary screening of 87 hit compounds (Table S1)
[3] = 0.1 μM, secondary screening of 87 hit compounds (Table S1)
[4] = 1 μM, secondary screening of 87 hit compounds (Table S1)
[5] = 10 μM, secondary screening of 87 hit compounds (Table S1)
[6] = 0.01 μM (first column so headed), secondary screening of 87 hit compounds (Table S1), read-out: Invasion rates (%) of each drug’s multiple concentrations
[7] = 0.01 μM (second column so headed), secondary screening of 87 hit compounds (Table S1), read-out: Invasion rates (%) of each drug’s multiple concentrations
[8] = 0.1 μM, secondary screening of 87 hit compounds (Table S1), read-out: Invasion rates (%) of each drug’s multiple concentrations
[9] = 1 μM, secondary screening of 87 hit compounds (Table S1), read-out: Invasion rates (%) of each drug’s multiple concentrations
[10] = 10 μM, secondary screening of 87 hit compounds (Table S1), read-out: Invasion rates (%) of each drug’s multiple concentrations

Row | Compound | Invasion rates (%) of each drug’s multiple concentrations (μM) [1] [%] | Invasion rates (%) of each drug’s multiple concentrations (μM) [2] [%] | Invasion rates (%) of each drug’s multiple concentrations (μM) [3] [%] | Invasion rates (%) of each drug’s multiple concentrations (μM) [4] [%] | Invasion rates (%) of each drug’s multiple concentrations (μM) [5] [%] | also measured
1 | Cc1ncc([N+](=O)[O-])n1CC(O)CN1CCOCC1 (single isomer, unassigned) [Morinidazole (R enantiomer)] | 90.71 | 98.08 | 89.69 | 10.13 | 2.86 | Invasion rates (%) of each drug’s multiple concentrations (μM) (0.01 μM (first column so headed), third screening of 25 hit compounds (Table S2)): 95.71%; Invasion rates (%) of each drug’s multiple concentrations (μM) (0.01 μM (second column so headed), third screening of 25 hit compounds (Table S2)): 97.64%; Invasion rates (%) of each drug’s multiple concentrations (μM) (0.1 μM, third screening of 25 hit compounds (Table S2)): 94.21%; Invasion rates (%) of each drug’s multiple concentrations (μM) (1 μM, third screening of 25 hit compounds (Table S2)): 6.21%; Invasion rates (%) of each drug’s multiple concentrations (μM) (10 μM, third screening of 25 hit compounds (Table S2)): 0.38%
2 | Nc1c2ccccc2nc2ccccc12 [9-Aminoacridine] |  |  |  |  |  | activity at 0.01 µM [6]: 96%; activity at 0.01 µM [7]: 93.3%; activity at 0.1 µM [8]: 94.7%; activity at 1 µM [9]: 86.4%; activity at 10 µM [10]: 1.63%
3 | CNC[C@H](O)c1cccc(O)c1.Cl [(R)-(-)-Phenylephrine (hydrochloride)] | 103.19 | 103.23 | 98.23 | 96.01 | 4.27 | 
4 | CC[C@@]1(O)C(=O)OCc2c1cc1n(c2=O)Cc2cc3cc(O)ccc3nc2-1 [(S)-10-Hydroxycamptothecin] |  |  |  |  |  | activity at 0.01 µM (read-out: Invasion rates (%) of each drug’s multiple concentrations (μM), 0.01 μM (first column so headed), secondary screening of 87 hit compounds (Table S1)): 93.7%; activity at 0.01 µM (read-out: Invasion rates (%) of each drug’s multiple concentrations (μM), 0.01 μM (second column so headed), secondary screening of 87 hit compounds (Table S1)): 98.2%; activity at 0.1 µM (read-out: Invasion rates (%) of each drug’s multiple concentrations (μM), 0.1 μM, secondary screening of 87 hit compounds (Table S1)): 85%; activity at 1 µM (read-out: Invasion rates (%) of each drug’s multiple concentrations (μM), 1 μM, secondary screening of 87 hit compounds (Table S1)): 89.9%; activity at 10 µM (read-out: Invasion rates (%) of each drug’s multiple concentrations (μM), 10 μM, secondary screening of 87 hit compounds (Table S1)): 85.1%
5 | CCN1CCN(Cc2ccc(Nc3ncc(F)c(-c4cc(F)c5nc(C)n(C(C)C)c5c4)n3)nc2)CC1.CS(=O)(=O)O [Abemaciclib (methanesulfonate)] | 93.33 | 94.22 | 93.89 | 89.88 | 47.24 | 
6 | CC[C@@]1(O)C[C@H](O[C@H]2C[C@H](N(C)C)[C@H](O[C@H]3C[C@H](O)[C@H](O[C@H]4CCC(=O)[C@H](C)O4)[C@H](C)O3)[C@H](C)O2)c2c(cc3c(c2O)C(=O)c2c(O)cccc2C3=O)[C@H]1C(=O)OC.Cl [Aclacinomycin A hydrochloride] | 84.24 | 96.55 | 76.95 | 81.36 | 1.28 | 
7 | CCO[C@H]1O[C@@H]2O[C@@]3(C)CC[C@H]4[C@H](C)CC[C@@H]([C@H]1C)[C@@]24OO3 [Artemotil] |  |  |  |  |  | activity at 0.01 µM [6]: 96.2%; activity at 0.01 µM [7]: 95.5%; activity at 0.1 µM [8]: 90.7%; activity at 1 µM [9]: 85.7%; activity at 10 µM [10]: 0.51%
